Some test systems named below: 786-0 renal; A549 NSCLC; EKVX NSCLC; HL-60(TB) leukemia; HOP-92 NSCLC; NCI-H522 lung; SF-295 CNS; HCT-116 colon; SK-MEL-28 melanoma.
Common to all, as to test: growth of human tumour cells (NCI), 48 h

“And” between values parts separate entries of the source, which are not always exact repeats. Identical values can stand only once.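 Values below derive from 48-hour exposures of cells grown in 96-well plates, with endpoints linearly interpolated between the two concentrations bracketing the appropriate inhibition level. Abbreviation: GI50, concentration required for 50% inhibition of growth. TGI denotes the concentration required for complete inhibition of growth.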

Take `O=c1[nH]c(=O)n(C2CC(O)C(CO)O2)cc1COCC(F)(F)F` (stereo not given): the TGI in the assay on 786-0 renal, in the assay with A549 NSCLC, in the assay on EKVX NSCLC, in the assay with HL-60(TB) leukemia, in the assay with HOP-92 NSCLC and in the assay on NCI-H522 lung was more than 100 µM each time. In addition, the TGI in the assay with SF-295 CNS is more than 100 µM.
As for `CNCCCNc1c2ccccc2nc2cccc([N+](=O)[O-])c12`, the TGI with 786-0 renal is 0.0247 µM; in the assay on A549 NSCLC, 0.00587 µM and 0.0106 µM; with EKVX NSCLC, 0.0226 µM and 0.0389 µM; with HCT-116 colon it was 0.017 µM and 0.0108 µM; in the assay on HOP-92 NSCLC, 0.00423 µM; in the assay with NCI-H522 lung, 0.0022 µM. The TGI in the assay with SF-295 CNS was 0.0279 µM; with SK-MEL-28 melanoma it was 0.0279 µM and 0.0138 µM.
Turning to `COC(=O)CC(=O)NCC1=CCC(=O)CC1`, the TGI with 786-0 renal, in the assay with A549 NSCLC, in the assay on EKVX NSCLC, with HCT-116 colon, with HL-60(TB) leukemia and in the assay on HOP-92 NSCLC was more than 100 µM throughout. For the same compound, the TGI in the assay with NCI-H522 lung, in the assay with SF-295 CNS and in the assay on SK-MEL-28 melanoma was more than 100 µM each time.
Turning to `CC12OC(C(=O)C13CCC3)C1C(=O)c3ccc4c(ccc5ccccc54)c3C(=O)C12` (stereo not given), the GI50 is 3.65 µM with 786-0 renal; 19.5 µM with A549 NSCLC; 20.7 µM with EKVX NSCLC; 11400 nM in the assay with HCT-116 colon; 5.15 µM in the assay on HL-60(TB) leukemia; 5.02 µM in the assay with HOP-92 NSCLC. Moreover, the results for the GI50 in the assay on NCI-H522 lung and in the assay on SK-MEL-28 melanoma were 13 µM and 36.1 µM, respectively. Further, the TGI with 786-0 renal was 8.82 µM; in the assay on A549 NSCLC it was more than 100 µM; in the assay with EKVX NSCLC, 63.7 µM; in the assay with HCT-116 colon, 24.8 µM; in the assay with HL-60(TB) leukemia, 43.7 µM; in the assay with HOP-92 NSCLC, 21.2 µM. In addition, the values for the TGI in the assay on NCI-H522 lung, with SF-295 CNS and in the assay with SK-MEL-28 melanoma were 35.1 µM, 0.0612 µM and more than 100 µM, respectively.
With `CC(=O)NC1=C(N)C(=O)c2ccccc2C1=O`, the TGI with 786-0 renal is more than 100 µM; with A549 NSCLC, more than 100 µM; in the assay on EKVX NSCLC it was more than 100 µM; in the assay with HCT-116 colon, 35 µM; in the assay on HL-60(TB) leukemia it was more than 100 µM; with HOP-92 NSCLC it was more than 100 µM. In addition, the TGI in the assay with NCI-H522 lung and in the assay with SF-295 CNS was more than 100 µM in each case.
Turning to `CCN(CC)c1ccc2nc3ccc(N=Nc4ccc(O)cc4)cc3[n+](-c3ccccc3)c2c1`, the GI50 in the assay with 786-0 renal was 26.6 µM; in the assay with A549 NSCLC, 4.85 µM; with EKVX NSCLC, 3.59 µM; with HCT-116 colon it was 2660 nM; in the assay on HOP-92 NSCLC, more than 100 µM; in the assay with SF-295 CNS, 2860 nM. In addition, the GI50 with SK-MEL-28 melanoma was 5.88 µM. Also, the TGI in the assay on 786-0 renal was more than 100 µM; with A549 NSCLC it was more than 100 µM; in the assay with EKVX NSCLC, 64.8 µM; in the assay on HCT-116 colon it was 10.6 µM; with HOP-92 NSCLC, more than 100 µM; in the assay with SF-295 CNS, more than 100 µM. The compound also registered a TGI in the assay with SK-MEL-28 melanoma of 21.5 µM.
As to `Cc1ccc(C2C(Cl)C(=O)N2NC(=O)c2ccc(N)cc2)cc1` (stereo not given), the TGI stood at 37.8 µM in the assay with 786-0 renal; 71.7 µM in the assay with A549 NSCLC; 49.7 µM in the assay on EKVX NSCLC; 28.3 µM in the assay on HCT-116 colon; 31.2 µM with HL-60(TB) leukemia; 28.5 µM with HOP-92 NSCLC. Besides, the TGI amounted to 25.6 µM with NCI-H522 lung, 47.8 µM in the assay with SF-295 CNS and 26 µM with SK-MEL-28 melanoma.
For `Cc1cc2c(cc1CO)N1Cc3cc(C)c(CO)cc3N(C2)C1`, the TGI in the assay on 786-0 renal, with A549 NSCLC, in the assay on EKVX NSCLC, with HCT-116 colon, in the assay with HL-60(TB) leukemia and in the assay with NCI-H522 lung was more than 100 µM each time. The TGI in the assay with SF-295 CNS and in the assay with SK-MEL-28 melanoma was more than 100 µM each time.
As for `COc1cc(CN(c2ccc(C)cc2)C2OC(=O)c3ccccc32)cc(OC)c1OC` (stereo not given), the GI50 in the assay with 786-0 renal is 0.691 µM; in the assay with A549 NSCLC it was 0.584 µM; in the assay with EKVX NSCLC it was 0.647 µM; in the assay with HCT-116 colon it was 501 nM; in the assay with HL-60(TB) leukemia it was 0.406 µM; in the assay on HOP-92 NSCLC it was 0.449 µM. The values for the GI50 in the assay with NCI-H522 lung, with SF-295 CNS and with SK-MEL-28 melanoma were 0.47 µM, 322 nM and 0.855 µM, respectively. For the same compound, the TGI in the assay on 786-0 renal is more than 100 µM; in the assay with A549 NSCLC, more than 100 µM; in the assay on EKVX NSCLC it was more than 100 µM; in the assay with HCT-116 colon, more than 100 µM; with HL-60(TB) leukemia it was 33.7 µM; with HOP-92 NSCLC, more than 100 µM. The TGI in the assay with NCI-H522 lung was 4.24 µM; in the assay on SF-295 CNS, more than 100 µM; with SK-MEL-28 melanoma it was more than 100 µM.
Consider `O=C([CH-]C(=O)c1ccccc1)c1ccccc1.O=C([CH-]C(=O)c1ccccc1)c1ccccc1.O=C([CH-]C(=O)c1ccccc1)c1ccccc1.[Cl-].[Zr+4]`, for which the GI50 with 786-0 renal is 18.6 µM; in the assay with A549 NSCLC, 33.9 µM; with EKVX NSCLC, 4.03 µM; with HOP-92 NSCLC it was 8.09 µM; in the assay with NCI-H522 lung, 11.4 µM; in the assay with SF-295 CNS, 12800 nM. Besides, in the assay on SK-MEL-28 melanoma, the GI50 was 13.2 µM. In addition, the TGI in the assay with 786-0 renal is 70.3 µM; with A549 NSCLC it was more than 100 µM; in the assay on EKVX NSCLC, 26.8 µM; in the assay on HOP-92 NSCLC, 36 µM; in the assay on NCI-H522 lung it was 46.6 µM; in the assay with SF-295 CNS it was more than 100 µM. Besides, the TGI in the assay with SK-MEL-28 melanoma came out at 36.7 µM.
On to `C[C@H](NC(=O)c1c(C(F)F)nn(C)c1Oc1cccc(C(F)(F)F)c1)c1ccc(C(=O)O)cc1`, for which the GI50 is more than 100 µM in the assay with 786-0 renal; more than 100 µM in the assay with A549 NSCLC; more than 100 µM with EKVX NSCLC; more than 100000 nM in the assay on HCT-116 colon; more than 100 µM in the assay on HL-60(TB) leukemia; 6.94 µM with HOP-92 NSCLC. For the same compound, the figures for the GI50 with NCI-H522 lung, with SF-295 CNS and in the assay with SK-MEL-28 melanoma were more than 100 µM, more than 100000 nM and more than 100 µM, respectively. Further, the TGI in the assay on 786-0 renal, in the assay with A549 NSCLC, in the assay with EKVX NSCLC, in the assay on HCT-116 colon, in the assay on HL-60(TB) leukemia and in the assay on HOP-92 NSCLC was more than 100 µM throughout. For the same compound, the TGI in the assay with NCI-H522 lung, in the assay on SF-295 CNS and in the assay on SK-MEL-28 melanoma was more than 100 µM each time.

(Values after PubChem BioAssay (NCI).)
